Results reported in ChEMBL document CHEMBL1201861, “Genomics of Drug Sensitity in Cancer screening data, Wellcome Trust Sanger Institute”.

Key:
DK-MG = assay: cells; type: functional, cell-based; details: Homo sapiens;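 further: growth inhibition of DK-MG cells, read out with a cell viability assay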
Description: SANGER: Inhibition of human DK-MG cell growth in a cell viability assay.

Daudi = assay: cells; type: functional, cell-based, Homo sapiens; details: Homo sapiens, Daudi;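 further: growth inhibition of Daudi cells, read out by a viability assay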
Description: SANGER: Inhibition of human Daudi cell growth in a cell viability assay.

EB-3 = assay: cells; type: functional, cell-based, Homo sapiens; details: Homo sapiens, EB-3;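 further: human EB-3 cells, growth inhibition read out via a cell viability assay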
Description: SANGER: Inhibition of human EB-3 cell growth in a cell viability assay.

EC-GI-10 = assay: cells; type: functional, cell-based, Homo sapiens; details: Homo sapiens, EC-GI-10
Description: SANGER: Inhibition of human EC-GI-10 cell growth in a cell viability assay.

EFM-19 = assay: cells; type: functional, cell-based; details: Homo sapiens;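 further: growth inhibition of human EFM-19 cells, measured in a cell viability assay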
Description: SANGER: Inhibition of human EFM-19 cell growth in a cell viability assay.

HCC1937 = assay: cells; type: functional, cell-based; details: Homo sapiens;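 further: growth inhibition measured with a cell viability read-out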
Description: SANGER: Inhibition of human HCC1937 cell growth in a cell viability assay.

HCC70 = assay: cells; type: functional, cell-based; details: Homo sapiens;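 further: cell viability assay measuring how strongly the compound suppresses proliferation of HCC70 cells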
Description: SANGER: Inhibition of human HCC70 cell growth in a cell viability assay.

HOP-92 = assay: cells; type: functional, cell-based; details: Homo sapiens;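 further: cell viability readout, with IC50 reflecting inhibition of HOP-92 cell growth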
Description: SANGER: Inhibition of human HOP-92 cell growth in a cell viability assay.

HT55 = assay: cells; type: functional, cell-based; details: Homo sapiens;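 further: cell viability readout measuring growth inhibition of human HT55 cells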
Description: SANGER: Inhibition of human HT55 cell growth in a cell viability assay.

HTC-C3 = assay: cells; type: functional, cell-based; details: Homo sapiens;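 further: inhibition of cell growth, read out with a cell viability assay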
Description: SANGER: Inhibition of human HTC-C3 cell growth in a cell viability assay.

HuTu80 = assay: cells; type: functional, cell-based, Homo sapiens, HUTU-80; details: Homo sapiens, HuTu80;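 further: growth inhibition of HuTu80 human cells, determined with a cell viability readout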
Description: SANGER: Inhibition of human HUTU-80 cell growth in a cell viability assay.

HuP-T4 = assay: cells; type: functional, cell-based; details: Homo sapiens;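 further: cell viability assay measuring how much HuP-T4 cell growth is inhibited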
Description: SANGER: Inhibition of human HuP-T4 cell growth in a cell viability assay.

IMR-5 = assay: cells; type: functional, cell-based, Homo sapiens; details: Homo sapiens, IMR-5; read-out: IC50;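 further: growth inhibition of human IMR-5 cells, read out with a cell viability assay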
Description: SANGER: Inhibition of human IMR-5 cell growth in a cell viability assay.

KARPAS-422 = assay: cells; type: functional, cell-based, Homo sapiens; details: Homo sapiens, KARPAS-422
Description: SANGER: Inhibition of human KARPAS-422 cell growth in a cell viability assay.

KOSC-2 = assay: cells; type: functional, cell-based; details: Homo sapiens;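 further: growth inhibition of KOSC-2 cells, read out by a cell viability assay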
Description: SANGER: Inhibition of human KOSC-2 cell growth in a cell viability assay.

KP-4 = assay: cells; type: functional, cell-based; details: Homo sapiens;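 further: human KP-4 cells, with growth inhibition read out through a cell viability assay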
Description: SANGER: Inhibition of human KP-4 cell growth in a cell viability assay.

KU-19-19 = assay: cells; type: functional, cell-based; details: Homo sapiens
Description: SANGER: Inhibition of human KU-19-19 cell growth in a cell viability assay.

KYSE-510 = assay: cells; type: functional, cell-based; details: Homo sapiens;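 further: cell viability readout used to measure how strongly growth of the cell line is suppressed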
Description: SANGER: Inhibition of human KYSE-510 cell growth in a cell viability assay.

KYSE-70 cell line = assay: cells; type: functional, cell-based; details: Homo sapiens;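 further: cell viability assay read-out, with IC50 expressing suppression of KYSE-70 cell growth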
Description: SANGER: Inhibition of human KYSE-70 cell growth in a cell viability assay.

LCLC-103H cell line = assay: cells; type: functional, cell-based; details: Homo sapiens
Description: SANGER: Inhibition of human LCLC-103H cell growth in a cell viability assay.

LCLC-97TM1 = assay: cells; type: functional, cell-based; details: Homo sapiens;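 further: cell viability assay measuring growth inhibition of human LCLC-97TM1 cells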
Description: SANGER: Inhibition of human LCLC-97TM1 cell growth in a cell viability assay.

LK-2 = assay: cells; type: functional, cell-based; details: Homo sapiens;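 further: growth inhibition of LK-2 cells, read out with a viability assay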
Description: SANGER: Inhibition of human LK-2 cell growth in a cell viability assay.

LoVo = assay: cells; type: functional, cell-based; details: Homo sapiens;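 further: growth inhibition of human LoVo cells, read out with a cell viability assay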
Description: SANGER: Inhibition of human LoVo cell growth in a cell viability assay.

MEL-JUSO = assay: cells; type: functional, cell-based; details: Homo sapiens;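 further: growth inhibition of human MEL-JUSO cells, read out with a cell viability assay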
Description: SANGER: Inhibition of human MEL-JUSO cell growth in a cell viability assay.

MKN-1 = assay: cells; type: functional, cell-based; details: Homo sapiens;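 further: growth inhibition of human MKN1 cells, read out by a cell viability measurement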
Description: SANGER: Inhibition of human MKN1 cell growth in a cell viability assay.

MKN-7 = assay: cells; type: functional, cell-based; details: Homo sapiens;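 further: growth inhibition of MKN-7 cells, read out with a cell viability assay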
Description: SANGER: Inhibition of human MKN7 cell growth in a cell viability assay.

MRK-nu-1 = assay: cells; type: functional, cell-based, Homo sapiens; details: Homo sapiens, MRK-nu-1;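 further: cell viability assay measuring growth suppression of human MRK-nu-1 cells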
Description: SANGER: Inhibition of human MRK-nu-1 cell growth in a cell viability assay.

NCI-H2081 = assay: cells; type: functional, cell-based, Homo sapiens; details: Homo sapiens, NCI-H2081;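 further: growth inhibition of human NCI-H2081 cells, read out with a cell viability assay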
Description: SANGER: Inhibition of human NCI-H2081 cell growth in a cell viability assay.

NCI-H2170 = assay: cells; type: functional, cell-based; details: Homo sapiens;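 further: cell viability assay measuring growth inhibition of human NCI-H2170 cancer cells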
Description: SANGER: Inhibition of human NCI-H2170 cell growth in a cell viability assay.

NCI-H322M = assay: cells; type: functional, cell-based, Homo sapiens; details: Homo sapiens, NCI-H322M;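 further: cell viability assay measuring inhibition of growth of human NCI-H322M cells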
Description: SANGER: Inhibition of human NCI-H322M cell growth in a cell viability assay.

NCI-H524 = assay: cells; type: functional, cell-based, Homo sapiens; details: Homo sapiens, NCI-H524;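 further: growth inhibition of human NCI-H524 cells, read out through a cell viability assay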
Description: SANGER: Inhibition of human NCI-H524 cell growth in a cell viability assay.

NCI-H64 = assay: cells; type: functional, cell-based, Homo sapiens; details: Homo sapiens, NCI-H64;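 further: growth inhibition of NCI-H64 cells, read out with a cell viability assay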
Description: SANGER: Inhibition of human NCI-H64 cell growth in a cell viability assay.

NCI-H719 = assay: cells; type: functional, cell-based, Homo sapiens; details: Homo sapiens, NCI-H719;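 further: growth inhibition of the cultured cell line, read out with a viability assay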
Description: SANGER: Inhibition of human NCI-H719 cell growth in a cell viability assay.

NUGC-3 = assay: cells; type: functional, cell-based; details: Homo sapiens;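 further: growth inhibition of human NUGC-3 cells, read out with a cell viability assay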
Description: SANGER: Inhibition of human NUGC-3 cell growth in a cell viability assay.

OAW-42 = assay: cells; type: functional, cell-based; details: Homo sapiens;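 further: growth inhibition of OAW-42 cells, read out with a cell viability assay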
Description: SANGER: Inhibition of human OAW-42 cell growth in a cell viability assay.

RMG-I = assay: cells; type: functional, cell-based; details: Homo sapiens;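 further: growth inhibition of human RMG-I cells, read out with a cell viability assay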
Description: SANGER: Inhibition of human RMG-I cell growth in a cell viability assay.

SK-MEL3 = assay: cells; type: functional, cell-based, SK-MEL-3; details: Homo sapiens;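 further: growth inhibition of human SK-MEL-3 cells, read out with a cell viability assay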
Description: SANGER: Inhibition of human SK-MEL-3 cell growth in a cell viability assay.

SK-MEL-30 = assay: cells; type: functional, cell-based; details: Homo sapiens;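 further: growth inhibition of SK-MEL-30 cells, determined with a cell viability assay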
Description: SANGER: Inhibition of human SK-MEL-30 cell growth in a cell viability assay.

SNU-C1 = assay: cells; type: functional, cell-based, Homo sapiens; details: Homo sapiens, SNU-C1;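 further: growth inhibition of SNU-C1 human cells, read out by a cell viability assay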
Description: SANGER: Inhibition of human SNU-C1 cell growth in a cell viability assay.

SW13 = assay: cells; type: functional, cell-based; details: Homo sapiens;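 further: IC50 is inhibition of SW13 cell growth, read out with a cell viability assay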
Description: SANGER: Inhibition of human SW13 cell growth in a cell viability assay.

SW1573 = assay: cells; type: functional, cell-based; details: Homo sapiens;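 further: growth inhibition of SW1573 cells, read out with a cell viability assay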
Description: SANGER: Inhibition of human SW1573 cell growth in a cell viability assay.

SW626 = assay: cells; type: functional, cell-based; details: Homo sapiens;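 further: growth inhibition of SW626 cells, measured with a cell viability assay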
Description: SANGER: Inhibition of human SW626 cell growth in a cell viability assay.

TCC-SUP = assay: cells; type: functional, cell-based; details: Homo sapiens;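 further: growth inhibition of TCC-SUP cells, read out with a cell viability assay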
Description: SANGER: Inhibition of human TCCSUP cell growth in a cell viability assay.

769-P = assay: cells; type: functional, cell-based; details: Homo sapiens
Description: SANGER: Inhibition of human 769-P cell growth in a cell viability assay.

A-375 = assay: cells; type: functional, cell-based; details: Homo sapiens;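 further: growth inhibition of A375 cells, read out with a cell viability assay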
Description: SANGER: Inhibition of human A375 cell growth in a cell viability assay.

A-431 = assay: cells; type: functional, cell-based; details: Homo sapiens;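 further: growth inhibition of A-431 cells, determined with a cell viability read-out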
Description: SANGER: Inhibition of human A431 cell growth in a cell viability assay.

ASPC1 = assay: cells; type: functional, cell-based; details: Homo sapiens;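 further: growth inhibition of AsPC-1 cells, read out with a cell viability assay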
Description: SANGER: Inhibition of human AsPC-1 cell growth in a cell viability assay.

BC1 cell line = assay: SANGER: Inhibition of human BC-1 cell growth in a cell viability assay.; type: functional, cell-based; details: Homo sapiens, BC1
BL-70 = assay: SANGER: Inhibition of human BL-70 cell growth in a cell viability assay.; type: functional, cell-based; details: Homo sapiens, BL-70
BOKU = assay: cells; type: functional, cell-based; details: Homo sapiens;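 further: growth inhibition of the human BOKU cell line, read out by a cell viability assay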
Description: SANGER: Inhibition of human BOKU cell growth in a cell viability assay.

CAL-120 = assay: cells; type: functional, cell-based; details: Homo sapiens;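 further: cell growth inhibition, read out as cell viability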
Description: SANGER: Inhibition of human CAL-120 cell growth in a cell viability assay.

CAL-39 = assay: cells; type: functional, cell-based; details: Homo sapiens;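 further: cell viability assay measuring growth inhibition of CAL-39 cells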
Description: SANGER: Inhibition of human CAL-39 cell growth in a cell viability assay.

CAL-62 = assay: cells; type: functional, cell-based; details: Homo sapiens;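 further: growth inhibition of CAL-62 cells, read out with a cell viability assay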
Description: SANGER: Inhibition of human CAL-62 cell growth in a cell viability assay.

VM-CUB-1 = assay: cells; type: functional, cell-based; details: Homo sapiens;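 further: cell viability assay measuring growth inhibition of the human VM-CUB-1 cell line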
Description: SANGER: Inhibition of human VM-CUB-1 cell growth in a cell viability assay.

WM-115 = assay: cells; type: functional, cell-based; details: Homo sapiens
Description: SANGER: Inhibition of human WM-115 cell growth in a cell viability assay.

CAMA-1 = assay: cells; type: functional, cell-based; details: Homo sapiens;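 further: growth inhibition of CAMA-1 cells, read out with a cell viability assay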
Description: SANGER: Inhibition of human CAMA-1 cell growth in a cell viability assay.

CMK = assay: cells; type: functional, cell-based, Homo sapiens; details: Homo sapiens, CMK
Description: SANGER: Inhibition of human CMK cell growth in a cell viability assay.

For `CCCCCCCCCCCC1=C(O)C(=O)C=C(O)C1=O` [EMBELIN], the IC50 (DK-MG) was > 32000 nM, the IC50 (Daudi) was 5750 nM and the IC50 (EB-3) was 20800 nM. For the same compound, the IC50 (EC-GI-10) was > 32000 nM, the IC50 (EFM-19) was 4910 nM and the IC50 (HCC1937) was 8630 nM. For the same compound, the IC50 (HCC70) was > 32000 nM, the IC50 (HOP-92) was 7880 nM and the IC50 (HT55) was > 32000 nM. It also gave an IC50 (HTC-C3) of 12800 nM, an IC50 (HuTu80) of 2350 nM and an IC50 (HuP-T4) of 7560 nM. The IC50 (IMR-5) was > 32000 nM, the IC50 (KARPAS-422) was 20700 nM and the IC50 (KOSC-2) was > 32000 nM. For the same compound, the IC50 (KP-4) was > 32000 nM, the IC50 (KU-19-19) was > 32000 nM and the IC50 (KYSE-510) was 5810 nM. It also gave an IC50 (KYSE-70 cell line) of 15100 nM, an IC50 (LCLC-103H cell line) of 9060 nM and an IC50 (LCLC-97TM1) of 5960 nM. It also gave an IC50 (LK-2) of 18000 nM, an IC50 (LoVo) of 3870 nM and an IC50 (MEL-JUSO) of 7850 nM. The IC50 (MKN-1) was 12300 nM, the IC50 (MKN-7) was > 32000 nM and the IC50 (MRK-nu-1) was 12900 nM. For the same compound, the IC50 (NCI-H2081) was > 32000 nM, the IC50 (NCI-H2170) was 12100 nM and the IC50 (NCI-H322M) was > 32000 nM. The IC50 (NCI-H524) was > 32000 nM, the IC50 (NCI-H64) was > 32000 nM and the IC50 (NCI-H719) was > 32000 nM. For the same compound, the IC50 (NUGC-3) was 9180 nM, the IC50 (OAW-42) was > 32000 nM and the IC50 (RMG-I) was 9240 nM. The IC50 (SK-MEL3) was 16200 nM, the IC50 (SK-MEL-30) was 12800 nM and the IC50 (SNU-C1) was 10300 nM. For the same compound, the IC50 (SW13) was 12600 nM, the IC50 (SW1573) was > 32000 nM and the IC50 (SW626) was 9350 nM. The IC50 (TCC-SUP) was 11600 nM, the IC50 (769-P) was 8470 nM and the IC50 (A-375) was 3570 nM. For the same compound, the IC50 (A-431) was 5760 nM, the IC50 (ASPC1) was > 32000 nM and the IC50 (BC1 cell line) was 5030 nM. It also gave an IC50 (BL-70) of 5830 nM, an IC50 (BOKU) of 10700 nM and an IC50 (CAL-120) of 24000 nM. For the same compound, the IC50 (CAL-39) was 4480 nM, the IC50 (CAL-62) was 23300 nM and the IC50 (VM-CUB-1) was 10800 nM. The IC50 (WM-115) was 13800 nM, the IC50 (CAMA-1) was 7090 nM and the IC50 (CMK) was 10700 nM.
With `C/C(=C\c1csc(C)n1)[C@@H]1C[C@@H]2O[C@]2(C)CCC[C@H](C)[C@H](O)[C@@H](C)C(=O)C(C)(C)[C@@H](O)CC(=O)O1` [PATUPILONE] the IC50 (DK-MG) was > 32 nM, the IC50 (Daudi) was 24.8 nM and the IC50 (EB-3) was > 32 nM. The IC50 (EC-GI-10) was > 32 nM, the IC50 (EFM-19) was 10.6 nM and the IC50 (HCC1937) was > 32 nM. The IC50 (HCC70) was 4.79 nM, the IC50 (HOP-92) was > 32 nM and the IC50 (HT55) was > 32 nM. The IC50 (HTC-C3) was 2.94 nM, the IC50 (HuTu80) was 0.328 nM and the IC50 (HuP-T4) was 2.54 nM. For the same compound, the IC50 (IMR-5) was 9.51 nM, the IC50 (KARPAS-422) was 10.6 nM and the IC50 (KOSC-2) was 2.83 nM. The IC50 (KP-4) was 0.682 nM, the IC50 (KU-19-19) was > 32 nM and the IC50 (KYSE-510) was 0.0738 nM. For the same compound, the IC50 (KYSE-70 cell line) was 7.58 nM, the IC50 (LCLC-103H cell line) was 0.31 nM and the IC50 (LCLC-97TM1) was 0.444 nM. For the same compound, the IC50 (LK-2) was 4.86 nM, the IC50 (LoVo) was 1.85 nM and the IC50 (MEL-JUSO) was 0.928 nM. The IC50 (MKN-1) was 2.65 nM, the IC50 (MKN-7) was > 32 nM and the IC50 (MRK-nu-1) was 0.9 nM. The IC50 (NCI-H2081) was > 32 nM, the IC50 (NCI-H2170) was 5.22 nM and the IC50 (NCI-H322M) was > 32 nM. The IC50 (NCI-H524) was 23.1 nM, the IC50 (NCI-H64) was 8.25 nM and the IC50 (NCI-H719) was > 32 nM. The IC50 (NUGC-3) was 1.16 nM, the IC50 (OAW-42) was 2.18 nM and the IC50 (RMG-I) was > 32 nM. The IC50 (SK-MEL3) was 20.9 nM, the IC50 (SK-MEL-30) was 1.34 nM and the IC50 (SNU-C1) was > 32 nM. For the same compound, the IC50 (SW13) was 5.01 nM, the IC50 (SW1573) was 14.6 nM and the IC50 (SW626) was 1.98 nM. For the same compound, the IC50 (TCC-SUP) was 4.5 nM, the IC50 (769-P) was 0.753 nM and the IC50 (A-375) was 0.05 nM. For the same compound, the IC50 (A-431) was < 0.125 nM, the IC50 (ASPC1) was > 32 nM and the IC50 (BC1 cell line) was 1.99 nM. The IC50 (BL-70) was 2.16 nM, the IC50 (BOKU) was > 32 nM and the IC50 (CAL-120) was 10.1 nM. The IC50 (CAL-39) was 0.411 nM, the IC50 (CAL-62) was 0.875 nM and the IC50 (VM-CUB-1) was 3.09 nM. For the same compound, the IC50 (WM-115) was > 32 nM, the IC50 (CAMA-1) was 12.9 nM and the IC50 (CMK) was 1.33 nM.
